# According to BindingDB's records for doi:10.1021/acs.biochem.6b01025 (Washington College, 2017):
# Tests used:
# [1] = target: T1, Tyrosine-protein phosphatase non-receptor type 1 [1-301] (Homo sapiens, UniProt P18031); assay: NMR Chemical Shift Titration Assay
# T1 construct: 1-301
# T1 sequence (P18031 whole entry): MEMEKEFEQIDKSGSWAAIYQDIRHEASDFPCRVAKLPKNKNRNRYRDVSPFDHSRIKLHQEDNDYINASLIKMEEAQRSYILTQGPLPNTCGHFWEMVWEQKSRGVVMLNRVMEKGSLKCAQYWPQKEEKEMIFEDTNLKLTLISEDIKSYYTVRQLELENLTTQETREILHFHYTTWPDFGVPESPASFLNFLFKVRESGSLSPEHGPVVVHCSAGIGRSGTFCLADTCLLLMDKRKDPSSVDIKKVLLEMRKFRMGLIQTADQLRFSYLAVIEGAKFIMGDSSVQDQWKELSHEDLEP
# [2] = target: T1, Tyrosine-protein phosphatase non-receptor type 1 [1-301]; assay: PTP1B Inhibition Assay
# Description: Kinetic parameters were determined by fitting the reaction rates to different inhibition models as a function of the inhibitor and pNPP concentrations using GraphPad Prism version 6.0d. The total reaction volume in all cases was 500 μL, and the temperature was maintained at 25 °C using a water-regulated cuvette holder.
compound,measurement,setting,value
O=C(/C=C/c1ccc(O)c(O)c1)O[C@@H](C(=O)O)[C@@H](OC(=O)/C=C/c1ccc(O)c(O)c1)C(=O)O [Cichoric acid (CHA)],Kd,[1],1.6 mM
same,Ki,[2],1.4 mM
